Measurements from the supplement of paper PMC13380429.

Legend:
Settings in all cases: 72 h
HepG2 [1] = assay: drug sensitivity score (DSS) for viability; higher = more toxic; extreme values may be limits of the assay
U2OS [2] = assay: as above
Calu-3 [3] = assay: as above
Vero E6 [4] = assay: as above
Caco-2 [5] = assay: as above
HepG2 [6] = assay: relative viability EC50 (midpoint between 100% and the lowest measured viability); higher = less toxic
U2OS [7] = assay: as above
Calu-3 [8] = assay: as above
Caco-2 [9] = assay: as above
HepG2 [10] = assay: cell viability relative to DMSO; higher = less toxic
U2OS [11] = assay: as above
Calu-3 [12] = assay: as above
Vero E6 [13] = assay: as above
Caco-2 [14] = assay: as above
Vero E6 [15] = assay: relative viability EC50 (midpoint between 100% and the lowest measured viability); higher = less toxic

| SMILES | drug sensitivity score (HepG2 [1]) | drug sensitivity score (U2OS [2]) | drug sensitivity score (Calu-3 [3]) | drug sensitivity score (Vero E6 [4]) | drug sensitivity score (Caco-2 [5]) | relative viability EC50 (HepG2 [6]) | relative viability EC50 (U2OS [7]) | relative viability EC50 (Calu-3 [8]) | relative viability EC50 (Caco-2 [9]) | cell viability (HepG2 [10]; 1 nM) | cell viability (HepG2 [10]; 10 nM) | cell viability (HepG2 [10]; 100 nM) | cell viability (HepG2 [10]; 1000 nM) | cell viability (HepG2 [10]; 10000 nM) | cell viability (U2OS [11]; 1 nM) | cell viability (U2OS [11]; 10 nM) | cell viability (U2OS [11]; 100 nM) | cell viability (U2OS [11]; 1000 nM) | cell viability (U2OS [11]; 10000 nM) | cell viability (Calu-3 [12]; 1 nM) | cell viability (Calu-3 [12]; 10 nM) | cell viability (Calu-3 [12]; 100 nM) | cell viability (Calu-3 [12]; 1000 nM) | cell viability (Calu-3 [12]; 10000 nM) | cell viability (Vero E6 [13]; 1 nM) | cell viability (Vero E6 [13]; 10 nM) | cell viability (Vero E6 [13]; 100 nM) | cell viability (Vero E6 [13]; 1000 nM) | cell viability (Vero E6 [13]; 10000 nM) | cell viability (Caco-2 [14]; 1 nM) | cell viability (Caco-2 [14]; 10 nM) | cell viability (Caco-2 [14]; 100 nM) | cell viability (Caco-2 [14]; 1000 nM) | cell viability (Caco-2 [14]; 10000 nM) | relative viability EC50 (Vero E6 [15]) |
| --- | --- | --- | --- | --- | --- | --- | --- | --- | --- | --- | --- | --- | --- | --- | --- | --- | --- | --- | --- | --- | --- | --- | --- | --- | --- | --- | --- | --- | --- | --- | --- | --- | --- | --- | --- |
| COCC[n+]1c2c(n(Cc3cnccn3)c1C)C(=O)c1ccccc1C2=O [YM-155] | 27 | 37.2 | 39 | 4 | 40.1 | 0.0587 µM | 0.0091 µM | 0.0051 µM | 0.0039 µM | 103% | 102% | 21% | 3% | 0.4% | 100% | 44.3% | 1.5% | -0.2% | -0.1% | 83.9% | 34.4% | 3% | 0.5% | 0.4% | 90.7% | 97.4% | 87.5% | 85.2% | 52% | 81.5% | 27.8% | 3.8% | 1.7% | 1.7% | – |
| CC(=O)Nc1ccccc1 [acetanilide] | – | 0 | 0 | 0 | 0 | – | > 10 µM | > 10 µM | > 10 µM | – | – | – | – | – | 105% | 99% | 103% | 99.1% | 98.9% | 95% | 94.6% | 103% | 98.2% | 99.8% | 109% | 93.7% | 102% | 103% | 104% | 98.1% | 101% | 94.5% | 107% | 94.4% | > 10 µM |
| Sc1nc2ccccc2s1 [benzo[d]thiazole-2(3H)-thione] | 0 | 0 | 0 | – | 0 | > 10 µM | > 10 µM | > 10 µM | > 10 µM | 99.8% | 101% | 119% | 101% | 108% | 100% | 103% | 94.8% | 102% | 97.2% | 76.6% | 91.1% | 96.7% | 96.3% | 93.1% | – | – | – | – | – | 96.5% | 101% | 97.1% | 103% | 94.8% | – |
| Cn1nnnc1SCC1=C(C(=O)O)N2C(=O)[C@@H](NC(=O)[C@H](OC=O)c3ccccc3)[C@H]2SC1 [cefamandole-nafate] | 0 | – | 0 | 0 | 0 | > 10 µM | – | > 10 µM | > 10 µM | 85.1% | 103% | 100% | 94.3% | 93.3% | – | – | – | – | – | 90.2% | 108% | 94.4% | 94.1% | 92.6% | 104% | 104% | 96.9% | 102% | 104% | 97.9% | 91.8% | 98.6% | 99.4% | 100% | > 10 µM |
| NC(=O)c1nc(F)cnc1O [favipiravir] | 0 | – | 0 | 0 | 0 | > 10 µM | – | > 10 µM | > 10 µM | 102% | 98.8% | 103% | 79.1% | 118% | – | – | – | – | – | 100% | 105% | 98.5% | 111% | 97.7% | 109% | 88.4% | 101% | 96.8% | 103% | 88.5% | 91.7% | 71.8% | 84.7% | 88.6% | > 10 µM |
| O=C1c2ccccc2S(=O)(=O)N1CCCCN1CCN(c2ncccn2)CC1 [ipsapirone] | 0 | – | 0 | 0 | 0 | > 10 µM | – | > 10 µM | > 10 µM | 96.6% | 102% | 103% | 101% | 103% | – | – | – | – | – | 106% | 93.9% | 94.3% | 99.6% | 102% | 97% | 102% | 97.2% | 91.8% | 105% | 104% | 90.5% | 90.7% | 98.2% | 97.8% | > 10 µM |
| C[C@@H]1CC(=O)NN=C1c1ccc(NN=C(C#N)C#N)cc1 [levosimendan] | 0 | 1.8 | 0 | 0 | 0 | > 10 µM | – | > 10 µM | > 10 µM | 101% | 102% | 98.5% | 99.6% | 88.4% | 99% | 96.8% | 101% | 96.2% | 71.3% | 93.7% | 95.8% | 100% | 97.3% | 109% | 95.6% | 102% | 85.7% | 103% | 99% | 97.2% | 113% | 98.9% | 96% | 94.6% | > 10 µM |
| N[C@@H](C(=O)N[C@@H]1C(=O)N2C(C(=O)O)=C(Cl)CC[C@H]12)c1ccccc1 [loracarbef] | 0 | 0 | 0 | – | 0 | > 10 µM | > 10 µM | > 10 µM | > 10 µM | 100% | 100% | 96.3% | 92% | 97.6% | 93.6% | 102% | 95.7% | 100% | 101% | 88.5% | 102% | 96.6% | 102% | 99% | – | – | – | – | – | 107% | 104% | 95.9% | 91.5% | 98.2% | – |
| Cc1ccc2nc(N)[nH]c(=O)c2c1Sc1ccncc1 [nolatrexed] | 1.1 | 0 | 0 | 0.5 | 0.4 | – | > 10 µM | > 10 µM | > 10 µM | 107% | 99.5% | 97.1% | 101% | 71.6% | 94.3% | 99.3% | 92.4% | 101% | 94.3% | 97.9% | 93.4% | 85.8% | 96.9% | 99.1% | 103% | 97.2% | 99.8% | 98.9% | 83.1% | 98.2% | 98.7% | 101% | 104% | 80.3% | > 10 µM |
| CCCC[C@H]1C(=O)N(c2ccccc2)N(c2ccc(O)cc2)C1=O [oxyphenbutazone] | 6 | 5.6 | 0 | 2.5 | 3.8 | 2.66 µM | 2.83 µM | > 10 µM | 2.41 µM | 103% | 102% | 105% | 94.2% | 7.9% | 101% | 95.8% | 100% | 96% | 9.3% | 91.2% | 104% | 103% | 110% | 97.6% | 105% | 107% | 109% | 101% | 50.3% | 99.6% | 89.2% | 96.7% | 94.9% | 44.2% | – |
| C[n+]1ccccc1C=NO [pralidoxime] | 0 | 0 | 0 | – | 0 | > 10 µM | > 10 µM | > 10 µM | > 10 µM | 106% | 115% | 102% | 101% | 89.7% | 100% | 97.4% | 103% | 98.4% | 103% | 96.6% | 93.1% | 93.8% | 91.3% | 110% | – | – | – | – | – | 103% | 94.5% | 105% | 99.8% | 95% | – |
| Cc1cncc(CN2CCC(=C3c4ccc(Cl)cc4CCc4cccnc43)CC2)c1 [rupatadine] | 1.9 | 0 | 0 | 0 | 0.7 | – | > 10 µM | > 10 µM | > 10 µM | 112% | 100% | 99.2% | 95.5% | 71.9% | 101% | 91.9% | 99.5% | 95.6% | 90.3% | 105% | 97.1% | 99.9% | 109% | 113% | 99% | 102% | 96.8% | 100% | 102% | 98.3% | 102% | 93.8% | 90.2% | 88.3% | > 10 µM |
| Cc1c(C)c2c(c(C)c1OC(=O)CCC(=O)OCCO)CC[C@@](C)(CCC[C@H](C)CCC[C@H](C)CCCC(C)C)O2 [tocofersolan] | 0 | 1.3 | 0 | 0 | 0 | > 10 µM | – | > 10 µM | > 10 µM | 98.4% | 99.8% | 95% | 103% | 100% | 102% | 105% | 99% | 98.4% | 72.9% | 105% | 101% | 105% | 104% | 95.2% | 97.8% | 97.9% | 95.9% | 94.9% | 99.3% | 96.8% | 105% | 106% | 101% | 90.2% | > 10 µM |
| Cc1cc(C)cc(C(=O)O[C@H]2C[C@H]3CC[C@@H](C2)N3C)c1 [tropanyl-3,5-dimethylbenzoate] | 0 | – | 0 | 0 | 0 | > 10 µM | – | > 10 µM | > 10 µM | 99.5% | 106% | 102% | 92.7% | 93.2% | – | – | – | – | – | 99.7% | 107% | 98.2% | 106% | 93.3% | 91.8% | 94.3% | 96.3% | 91.7% | 108% | 104% | 97.6% | 92.7% | 102% | 94.9% | > 10 µM |
| CCCCOC(=O)c1ccccc1Nc1cccc(C(F)(F)F)c1 [ufenamate] | – | 0 | 0 | 0 | 0 | – | > 10 µM | > 10 µM | > 10 µM | – | – | – | – | – | 91.7% | 98.7% | 92.4% | 100% | 108% | 105% | 87.3% | 91.8% | 93.7% | 94.7% | 110% | 104% | 106% | 106% | 98.5% | 96.2% | 102% | 94.4% | 93.7% | 98.1% | > 10 µM |
| CC(=O)N[C@H]1[C@H]([C@H](O)[C@H](O)CO)OC(C(=O)O)=C[C@@H]1NC(=N)N [zanamivir] | 0 | – | 0 | 0 | 0 | > 10 µM | – | > 10 µM | > 10 µM | 93.4% | 95.5% | 95.7% | 110% | 107% | – | – | – | – | – | 93.8% | 92% | 93.2% | 91.8% | 95.1% | 94.6% | 98.4% | 90.6% | 98.7% | 109% | 96.4% | 90.9% | 101% | 101% | 106% | > 10 µM |
